The text below walks through data of PMC11528320, “S-MGBs bearing amidine tail groups are potent, selective antiplasmodial agents” (RSC Medicinal Chemistry, 2024).

Experiment [1] concerns double stranded DNA oligo 5′-CGCATATATGCG-3′. Briefly: native mass spectrometry (nESI-MS) of binding to dsDNA oligo. The conditions noted are these: 9 μM DNA, 100 μM S-MGB. As for the experimental part:
DNA oligonucleotide sequence 5′-[…]-3′ was purchased in lyophilized form from Alpha DNA, Canada) and used without further purification, purity assessed by NMR. 100 μM stock solutions of DNA were prepared with 150 mM ammonium acetate solution (Fisher Scientific, Loughborough, Leicestershire, UK) and 2 mM potassium chloride solution (Fisher Scientific, Loughborough, Leicestershire, UK). This solution was annealed at 90 degrees for 10 minutes and allowed to cool to room temperature. 10 mM S-MGB stock in 100% DMSO (Sigma-Aldrich, St. Louis, MO, USA) were diluted to 1 mM S-MGB solution with 150 mM ammonium acetate. Final samples were prepared from this solution to yield final concentrations of 9 μM DNA, 100 μM KCl, and 100 μM s-MGB, 1% DMSO. DNA solutions containing no S-MGB included 1% DMSO and were used as controls.
Native mass spectrometry experiments were carried out on a Synapt G2Si instrument (Waters, Manchester, UK) with a nanoelectrospray ionization source (nESI). Mass calibration was performed by a separate infusion of NaI cluster ions. Solutions were ionized from a thin-walled borosilicate glass capillary (i.d. 0.78 mm, o.d. 1.0 mm, Sutter Instrument Co., Novato, CA, USA) pulled in-house to nESI tip with a Flaming/Brown micropipette puller (Sutter Instrument Co., Novato, CA, USA). A negative potential in range of 1.0–1.2 kV was applied to the solution via a thin platinum wire (diameter 0.125 mm, Goodfellow, Huntingdon, UK). The following non-default instrument parameters were used for the DNA: S-MGB-241 complex: capillary voltage 1.4 kV, sample cone voltage 100 V, source offset 110 V, source temperature 40 °C, trap collision energy 3.0 (V), trap gas 3 mL min^−1. For DNA with no MGB present, the following parameters were changed: capillary voltage 1.0 kV, sample cone voltage 80 V, source offset 95 V and trap gas 4.0 mL min^−1. Data were processed using Masslynx V4.2 and OriginPro 2021, and figures were produced using Chemdraw.

The next experiment relates to P. falciparum 3D7. As to the kind of experiment: in vitro asexual P. falciparum imaging assay, 3D7 strain. Type of experiment: cell-based. The conditions noted are these: Plasmodium falciparum. The procedure:
(§1) The antiplasmodial in vitro assay was performed as previously described.[13] In brief, P. falciparum parasites (3D7 and Dd2 strains) were grown in RPMI-1640 medium supplemented with 25 mM HEPES, 5% AB human male serum, 2.5 mg mL^−1 Albumax II, and 0.37 mM hypoxanthine. Parasites were subjected to two rounds of sorbitol synchronization prior to compound addition. Ring stage parasites were incubated with compounds in 384-well imaging CellCarrier microplates, for 72 h at 37 °C, 90% N2, 5% CO2, 5% O2, parasites stained with 4′,6-diamidino-2-phenylindole (DAPI) and imaged using an Opera QEHS microplate confocal imaging system (PerkinElmer). Images were analysed as previously described,[13] and raw data normalized using the in-plate positive and negative controls to obtain percent inhibition, used to calculate IC50 values, through a four-parameter logistic curve fitting in Prism (GraphPad).

A further experiment relates to P. falciparum Dd2. As to the kind of experiment: in vitro asexual P. falciparum imaging assay, Dd2 strain. To be noted: for IC50: Plasmodium falciparum, DD2, 72 h, read-out: Dd2 IC50; for Dd2/3D7: ratio of Dd2 IC50 to 3D7 IC50 (cross-resistance). Type of experiment: cell-based. The procedure:
as §1

For the next experiment, the system named is HEK293 cells. Briefly: HEK293 cell viability (resazurin) assay. Type of experiment: cell-based, Human. To be noted: for inhibition at 80 µM: Homo sapiens, HEK293, 72 h; for SI, HEK293/3D7: ratio of HEK293 IC50 (or relative IC50) to P. falciparum 3D7 IC50. The procedure:
Cell viability was assessed using a minor modification of the protocol previously described.[14] Human embryonic kidney cells (HEK293) were maintained in Dulbecco's modified Eagle's medium supplemented with 10% foetal bovine serum.
(In general: Resazurin is reduced to fluorescent resorufin, in cell work by metabolically active cells.)

The subject of experiment [2] is Salmon genomic DNA (gDNA). As to the kind of experiment: UV-vis DNA thermal melting (thermal shift) with gDNA. Type of experiment: binding. To be noted: 10 μM S-MGB, 0.02 mg mL^−1 salmon gDNA, N = 3; for Tm of S-MGB + gDNA: gDNA alone 70. As for the experimental part: Salmon genomic DNA (gDNA; D1626, Sigma-Aldrich) at 1 mg mL^−1 in 1 mM phosphate buffer (pH 7.4) containing 0.27 mM KCl and 13.7 mM NaCl (P4417, Sigma-Aldrich) was annealed at 90 °C for 10 min and left to cool to room temperature. S-MGBs at 10 mM in DMSO were diluted with the same phosphate buffer to yield a single sample with 10 μM S-MGB and 0.02 mg mL^−1 gDNA in 1 mM phosphate buffer containing 0.27 mM KCl and 13.7 mM NaCl. Control samples containing only S-MGB or gDNA were prepared, respectively. Samples were melted at a rate of 0.5 °C min^−1 from 45 °C to 90 °C with spectra recorded at 260 nm on a UV-1900 UV-vis spectrophotometer fitted with a Peltier temperature controller (Shimadzhu) using LabSolutions (Tm Analysis) software. The melting temperatures (Tms) of the S-MGB:DNA complexes were determined by fitting a sigmoidal function using a Boltzmann distribution in OriginPro.

[3] abbreviates: 3D7, strain not specified, read-out: potency against P. falciparum (approximate, conclusion).

Like-named read-outs stand apart in the source and are kept apart here. Some results are limits rather than exact numbers.

One may read the inhibition as the drop in the measured response relative to a control, in per cent. In general, ΔTm refers to the change in melting temperature against a reference sample.

For the molecule `Cn1cc(NC(=O)c2cc(NC(=O)c3ccc(/C=C/c4ccc5ccccc5c4)cc3)cn2C)cc1C(=O)NCCC(=N)N.O=C(O)C(F)(F)F` [S-MGB-359], in experiment [1], the “binding to dsDNA as dimer [DS + 2 M]” value is “bind to DNA as dimers” and the “binding to dsDNA as monomer [DS + 1 M]” value is listed as “minor peak corresponding to the monomer complex”. Further, the IC50 with P. falciparum 3D7 (3D7, 72 h, read-out: 3D7 IC50) amounted to 302.1 ± 0.6 nM. Besides, the IC50 in the experiment with P. falciparum 3D7 (setting [3]) is around 100 nM. In the experiment with P. falciparum Dd2, the IC50 came to 318.6 ± 1.1 nM and the Dd2/3D7 is 1.1. Also, in the experiment on HEK293 cells, at 80 µM the inhibition was 23% and the “SI, HEK293/3D7” value was above 264.8. Moreover, in the experiment with HEK293 cells (not rIC50 as < 30% inhibition), the “HEK293 top concentration tested, used to calculate SI” value is 80 nM. The “SI, HEK293/3D7” value with HEK293 cells (listed as 359) was above 264.8. Moreover, in experiment [2], the shift in melting temperature (ΔTm) is 16 °C and the “Tm of S-MGB + gDNA” value came to 86 °C.
As to `Cn1cc(NC(=O)c2cc(NC(=O)c3ccc(/C=C/c4ccncc4)cc3)cn2C)cc1C(=O)NCCC(=N)N.O=C(O)C(F)(F)F.O=C(O)C(F)(F)F` [S-MGB-365], in experiment [1], the “binding to dsDNA as dimer [DS + 2 M]” value is “bind to DNA as dimers” and the “binding to dsDNA as monomer [DS + 1 M]” value was “no evidence”. The IC50 in the experiment with P. falciparum 3D7 (3D7, 72 h, read-out: 3D7 IC50) was 65.3 ± 0.2 nM. For the same molecule, in the experiment on P. falciparum 3D7 (setting [3]), the IC50 was around 100 nM. Besides, in the experiment with P. falciparum Dd2, the IC50 worked out at 79.6 ± 0.2 nM and the Dd2/3D7 was 1.2. In the experiment with HEK293 cells, the inhibition at 80 µM turned out to be 95% and the “SI, HEK293/3D7” value is above 612.6. For the same molecule, the “SI, HEK293/3D7” value with HEK293 cells (listed as S-MGB-356) is recorded as above 612.6. For the same molecule, in experiment [2], the ΔTm worked out at 12 °C and the “Tm of S-MGB + gDNA” value was found to be 82 °C.
`COc1cccc(/C=C/c2ccc(C(=O)Nc3cc(C(=O)Nc4cc(C(=O)NCCC(=N)N)n(C)c4)n(C)c3)cn2)c1.O=C(O)C(F)(F)F.O=C(O)C(F)(F)F` [S-MGB-368]: in experiment [1], the “binding to dsDNA as dimer [DS + 2 M]” value is on record as “bind to DNA as dimers” and the “binding to dsDNA as monomer [DS + 1 M]” value is “no evidence”. Besides, in the experiment on P. falciparum 3D7 (3D7, 72 h, read-out: 3D7 IC50), the IC50 was 134 ± 0.3 nM. The IC50 in the experiment on P. falciparum 3D7 (setting [3]) is around 100 nM. Moreover, in the experiment on P. falciparum Dd2, the IC50 amounted to 201.7 ± 0.3 nM and the Dd2/3D7 amounted to 1.5. In addition, in the experiment on HEK293 cells, the inhibition at 80 µM stood at 92% and the “SI, HEK293/3D7” value is above 335.8. Besides, the “SI, HEK293/3D7” value in the experiment on HEK293 cells (listed as 368) is on record as above 335.8. Further, in experiment [2], the shift in melting temperature (ΔTm) amounted to 3 °C and the “Tm of S-MGB + gDNA” value amounted to 73 °C.
